“And” between values parts separate entries of the source, which are not always exact repeats. Equal entries are not always repeated.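 Test compounds were applied to cells in 96-well plates for 48 hours at 5 doses. GI50: concentration for 50% inhibition of growth. At the TGI there is no net growth.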

Among the test systems are IGROV1 ovarian; KM12 colon; M14 melanoma; MDA-MB-435; NCI-H23 lung; RXF 393 renal; SK-MEL-28 melanoma; SW-620 colon; U251 CNS; UACC-257 melanoma.
Holding throughout (assay): NCI anticancer screen, dose series, 48 h

For `CC1=C(C(=O)Nc2ccc(F)c(Cl)c2)C(c2cccc(O)c2)NC(=S)N1` (stereo not given), the GI50 is 22.9 µM in the assay on IGROV1 ovarian; 10.8 µM in the assay on KM12 colon; 14.7 µM with M14 melanoma; 11.6 µM in the assay on MDA-MB-435; 19.2 µM in the assay on NCI-H23 lung; 14 µM in the assay with RXF 393 renal. The GI50 is > 50 µM with SK-MEL-28 melanoma, 20.6 µM in the assay with SW-620 colon, 16.6 µM with U251 CNS and 16.5 µM in the assay with UACC-257 melanoma. For the same compound, the TGI with IGROV1 ovarian is > 50 µM; with KM12 colon, 35.8 µM; with M14 melanoma, > 50 µM; in the assay with MDA-MB-435 it was 28.9 µM; in the assay on NCI-H23 lung it was > 50 µM; in the assay with RXF 393 renal it was 30.5 µM. Also, the TGI is > 50 µM with SK-MEL-28 melanoma, > 50 µM in the assay on SW-620 colon, > 50 µM in the assay with U251 CNS and 44.4 µM in the assay on UACC-257 melanoma.
For the compound `O=C1CC2(CCCc3sccc32)C(=O)N1` (stereo not given), the TGI with IGROV1 ovarian, in the assay with KM12 colon, with M14 melanoma, with MDA-MB-435, in the assay on NCI-H23 lung and in the assay with RXF 393 renal was > 100 µM throughout. The TGI in the assay with SK-MEL-28 melanoma, in the assay on SW-620 colon, in the assay with U251 CNS and in the assay with UACC-257 melanoma was > 100 µM each time.
With `Cc1cc(S(=O)(=O)Nc2nnc(-c3ccco3)c(-c3ccco3)n2)c(SCc2ccccc2)cc1Cl`, the GI50 was 32.4 µM with IGROV1 ovarian; 27.8 µM in the assay with KM12 colon; 25.8 µM in the assay with M14 melanoma; 25.4 µM with MDA-MB-435; 22.8 µM with NCI-H23 lung; 22.8 µM in the assay on RXF 393 renal. The GI50 in the assay with SK-MEL-28 melanoma is 20.7 µM; in the assay on SW-620 colon it was 23 µM; with U251 CNS, 25.7 µM; with UACC-257 melanoma, 25.9 µM. For the same compound, the TGI is > 100 µM in the assay on IGROV1 ovarian; > 100 µM in the assay on KM12 colon; 55.5 µM with M14 melanoma; 49.6 µM with MDA-MB-435; 46.9 µM with NCI-H23 lung; 47.6 µM in the assay on RXF 393 renal. For the same compound, the TGI with SK-MEL-28 melanoma is 40.5 µM; in the assay with SW-620 colon, 47.2 µM; in the assay with U251 CNS it was 62.2 µM; with UACC-257 melanoma it was 67.6 µM.
For the compound `COc1ccc(-n2c(-c3ccc(NC(=O)CCCl)cc3)nnc2-c2cc(OC)c(OC)c(OC)c2)cc1`, the GI50 in the assay with IGROV1 ovarian is 2.9 µM; in the assay on KM12 colon it was 2.35 µM; in the assay with M14 melanoma, 4.27 µM; with MDA-MB-435, 4.4 µM; in the assay with NCI-H23 lung it was 3.66 µM; with RXF 393 renal, 2.44 µM. Besides, the GI50 was 3.56 µM with SK-MEL-28 melanoma, 4.55 µM in the assay with SW-620 colon, 3.69 µM in the assay with U251 CNS and 6.23 µM with UACC-257 melanoma. In addition, the TGI in the assay with IGROV1 ovarian was > 14.3 µM; with KM12 colon, 7.6 µM; in the assay with M14 melanoma it was > 14.3 µM; with MDA-MB-435, > 14.3 µM; with NCI-H23 lung, > 14.3 µM; in the assay with RXF 393 renal, 5.02 µM. Besides, the TGI with SK-MEL-28 melanoma was 14 µM; in the assay with SW-620 colon, > 14.3 µM; with U251 CNS it was 13.5 µM; in the assay on UACC-257 melanoma it was > 14.3 µM.
Consider `CC1/C=C/C=C/CC/C=C/C=C/C=C/C=C/C(OC2OC(C)C(O)C(N)C2O)CC2OC(CC(O)C(O)CCC(O)CC(O)CC(O)CC(=O)OC(C)C(C)C1O)CC(O)C2C(=O)O` (stereo not given), for which the GI50 in the assay with IGROV1 ovarian is 23.4 µg/mL; in the assay with KM12 colon, 53 µg/mL; in the assay with M14 melanoma, 27.8 µg/mL; in the assay on MDA-MB-435, 28.1 µg/mL; in the assay on NCI-H23 lung, 25.7 µg/mL; with RXF 393 renal, 19.5 µg/mL. Besides, the GI50 is 25.7 µg/mL with SK-MEL-28 melanoma, 25.4 µg/mL in the assay on SW-620 colon, 69.1 µg/mL in the assay on U251 CNS and 28.9 µg/mL with UACC-257 melanoma. The TGI is 32.2 µM and 52.1 µg/mL in the assay with IGROV1 ovarian; 61.5 µM and 150 µg/mL in the assay on KM12 colon; 34.9 µM and 48.8 µg/mL in the assay with M14 melanoma; 31.9 µM and 50.1 µg/mL in the assay on MDA-MB-435; 35.6 µM and 50.3 µg/mL in the assay on NCI-H23 lung; 27.3 µM and 40.5 µg/mL in the assay with RXF 393 renal. Besides, the TGI with SK-MEL-28 melanoma was 37 µM and 46.3 µg/mL; in the assay with SW-620 colon, 42.2 µM and 46 µg/mL; in the assay with U251 CNS, 32.4 µM and 150 µg/mL; in the assay with UACC-257 melanoma it was 32.7 µM and 53.8 µg/mL.

The values above are taken from PubChem BioAssay (NCI).
